Results from US10787476B2, “Glycoamino acid and use thereof” (AJINOMOTO CO., INC., priority 2013, dated 2020).

Tests used:
[1] = Dissolution rate in stirring water; type: physicochemical; details: for dissolution rate: inside temperature 34° C., n=2
Procedure: Leu and Glc-Leu were each added to stirring water (inside temperature 34° C.) in a hot-water bath at 35° C., and the dissolution rate was measured. The amount of the sample added and the measurement results are as shown below (n=2). As compared to Leu, Glc-Leu was dissolved 46 times faster in equal weight and 17 times faster in equimolar amount.

α/β-glucosidase = test: Glucosidase treatment, amino acid production amount by HPLC; type: in vitro ADME; details: phosphate buffer pH 5.5, 37° C., 30 min later
Procedure: Glc-Phe, Glc-Leu, Glc-Lys, Glc-Glu and Glc-DOPA were each dissolved in phosphate buffer (pH 5.5) at the ratio shown in Table 2, α/β-glucosidase in the amount shown in Table 2 was added, and the mixture was stirred in a hot-water bath at 37° C. The mixture was diluted 2-fold with 1% aqueous phosphoric acid solution, and analyzed by HPLC. […] As for Glc-Leu, about 80% of leucine was liberated 1 hr later; as for Glc-Lys, about 20% of lysine was liberated 1 hr later; as for Glc-Glu, about 40% of glutamic acid was liberated 1 hr later; and as for Glc-DOPA, about 70% of 3,4-dihydroxyphenylalanine was liberated 1 hr later.

[2] = Heat stability of aqueous Glc-Leu solution (free Leu by HPLC); type: physicochemical; details: aqueous solution 100 mg/dl; for Leu liberated: 90° C.
Procedure: On the other hand, free Leu was not confirmed at 60° C. even after 72 hr, and sufficient heat stability as an amino acid precursor was shown.

[3] = equivalent weight, 300 mg/25 ml water

Row | dissolution rate ([1]; equimolar amount to glycoamino acid, 111 mg (0.85 mmol)/25 ml water) | dissolution rate [1, 3] | remaining glycoamino acid (α/β-glucosidase) | dissolved faster as compared to Leu ([1]; in equal weight) | dissolved faster as compared to Leu ([1]; in equimolar amount) | free Leu ([2]; 60° C., after 72 hr) | Leu liberated ([2]; 72 hr) | Leu liberated ([2]; about 6 hr) | SMILES
1 | (450 sec) | (1203 sec) | – | – | – | – | – | – | CC(C)C[C@H](N)C(=O)O [Leu, L-leucine, reference compound]
2 | – | – | almost disappeared | – | – | – | – | – | O=C(N[C@@H](Cc1ccccc1)C(=O)O)OC1O[C@H](CO)[C@@H](O)[C@H](O)[C@H]1O (stereo partly drawn) [Glc-Phe, N-(α/β-D-glucopyranosyloxycarbonyl)-L-phenylalanine]
3 | – | 26 s | – | 46 times | 17 times | not confirmed | liberated almost completely | about 50% | CC(C)C[C@H](NC(=O)OC1O[C@H](CO)[C@@H](O)[C@H](O)[C@H]1O)C(=O)O (stereo partly drawn) [Glc-Leu, N-(α/β-D-glucopyranosyloxycarbonyl)-L-leucine]
